Data on 14 compounds can be found in US20250214925A1, “CATIONIC LIPID, LIPOSOME, LIPID NANOPARTICLE, AND USE” (CARCELL BIOPHARMA LTD., priority 2022, published 2025).

A short description of series [1]: LNP size and PDI by dynamic laser light scattering. The format is physicochemical. The settings on record: LNP: 50% cationic lipid, 38.5% cholesterol, 10% DSPC, 1.5% DMG-PEG2000; Ffluc mRNA. The essentials: (§1)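 LNPs of cationic lipid/cholesterol/DSPC/DMG-PEG2000 at 50/38.5/10/1.5 mol% in ethanol, mixed with Ffluc mRNA at 0.2 mg/mL in 10 mM pH 4.0 citrate via T-mixer at 40 mL/min. Dialyzed overnight against 50 mM Tris-buffered saline pH 7.4 and sieved; PDI by dynamic light scattering, encapsulation by Ribogreen.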

A short description of series [2]: mRNA encapsulation efficiency of LNP by Ribogreen assay. It is filed as physicochemical. The note with it: LNP: 50% cationic lipid, 38.5% cholesterol, 10% DSPC, 1.5% DMG-PEG2000; Ffluc mRNA. The method, boiled down:
as §1

Series [3] concerns mice. Put plainly: In vivo delivery of Ffluc mRNA LNP in mice, intravenous administration, luminescence relative to MC3. Details: species or system mice (female Balb/C). The settings on record: fold change in luminescence intensity relative to MC3; 0.06 mg/kg tail vein; 6 h after injection. The method, boiled down: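 Female Balb/C mice (18-22 g, 6-8 weeks, n=5) received Ffluc mRNA LNP at 0.06 mg/kg by tail vein in 50 mM TBS pH 7.4. Six hours later, intraperitoneal D-luciferin was given and whole-body luminescence imaged, with each lipid reported as fold change relative to MC3 LNP.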

The subject of series [4] is mice. Put plainly: In vivo delivery of Ffluc mRNA LNP in mice, intramuscular administration, luminescence relative to MC3. The note with it: fold change in luminescence intensity relative to MC3; 50 μL of 0.1 mg/mL mRNA LNP into right thigh; 6 h after injection. Details: species or system mice (female Balb/C). The procedure: The prepared encapsulation solution was applied to mice in the following manner, and its delivery efficiency in mice was tested. Among them, DLin-MC3-DMA (MC3) was a cationic liposome for delivering small nucleic acids that was approved by the FDA for marketing in 2018, which has high nucleic acid drug delivery efficiency and biosafety, and was usually used as the industry gold standard in the screening process of cationic lipids. In the evaluation of mice experiments, the ratio of nucleic acid delivery efficiency normalized to MC3 was greater than 0.1, which was considered to be a cationic lipid with high delivery efficiency.
The LNP solution was diluted with 50 mM TBS, pH 7.4 to a concentration of 0.1 mg/mL mRNA.
2. The mice involved in this study were female Balb/C, weighing 18-22 g, 6-8 weeks old, with 5 mice in each group.
3. The dosing solution was kept at 4° C. prior to injection.
4. 50 μL of LNP solution was injected into the right thigh of the mice.
5. The mice were injected intraperitoneally with 200 μL of 1.5 mg/mL D-luciferin solution 6 h after injection.
6. The in vivo luminescence images of the mice were obtained using the IVIS system (Aniview).
7. The luminescence intensity of each mice was measured using Aniview software.
8. MC3 lipid nanoparticles were used as a positive control. The in vivo efficacy of each cationic lipid tested was recorded as the fold change in luminescence intensity relative to MC3 (ratio normalized to MC3).

With `CCCCC/C(=C/C(=O)OCCCCCCCCCN(CCCO)CCCCCCCCCOC(=O)/C=C(\CCCC)CCCCC)CCCC` [CPL-133-01, ((3-hydroxypropyl)azanediyl)bis(nonane-9,1-diyl) (2E,2′E)-bis(3-butyloct-2-enoate)], in series [1], the PDI came to 0.0569 and the “Size (nm)” value was 80.25 nm. Besides, in series [2], the “Encapsulation Rate” value was 97%. Moreover, the “In Vivo Efficacy Normalized To Mc3 In Mice (Intravenous Injection)” value with mice [3] was 3.54. Further, in the series with mice [4], the “In Vivo Efficacy Normalized To Mc3 In Mice (Intramuscular Injection)” value was 6.61.

For `CCCCCCCC/C(=C/C(=O)OCCCCCCCCCN(CCCO)CCCCCCCCCOC(=O)/C=C(\CCC)CCCCCCCC)CCC` [CPL-127, ((3-hydroxypropyl)azanediyl)bis(nonane-9,1-diyl) (2E,2′E)-bis(3-propylundec-2-enoate)], in series [1], the PDI is on record as 0.0486 and the “Size (nm)” value is 94.43 nm. In addition, in series [2], the “Encapsulation Rate” value amounted to 92%. Moreover, the “In Vivo Efficacy Normalized To Mc3 In Mice (Intravenous Injection)” value in the series on mice [3] worked out at 2.54. The “In Vivo Efficacy Normalized To Mc3 In Mice (Intramuscular Injection)” value in the series on mice [4] was 2.37.

With `CCCCCCCCCC/C(=C/C(=O)OCCCCCCCN(CCCO)CCCCCCCOC(=O)/C=C(\CCCCC)CCCCCCCCCC)CCCCC` [CPL-092-01, ((3-hydroxypropyl)azanediyl)di(heptane-7,1-diyl) (2E,2′E)-di(3-pentyltridec-2-enoate)], in series [1], the PDI came out at 0.21 and the “Size (nm)” value was determined as 98.6 nm. Besides, in series [2], the “Encapsulation Rate” value is 97%. Besides, the “In Vivo Efficacy Normalized To Mc3 In Mice (Intravenous Injection)” value with mice [3] stood at 8.96. Moreover, the “In Vivo Efficacy Normalized To Mc3 In Mice (Intramuscular Injection)” value in the series with mice [4] is listed as 2.20.

Take `CCCCCCCC/C(=C/C(=O)OCCCCCCCCN(CCCO)CCCCCCCCOC(=O)/C=C(\CCCCC)CCCCCCCC)CCCCC` [CPL-113-01, ((3-hydroxypropyl)azanediyl)bis(octane-8,1-diyl) (2E,2′E)-bis(3-pentylundec-2-enoate)]: in series [1], the PDI is 0.24 and the “Size (nm)” value is 97.7 nm. Moreover, the “Encapsulation Rate” value in series [2] was found to be 96%. The “In Vivo Efficacy Normalized To Mc3 In Mice (Intravenous Injection)” value in the series on mice [3] is 2.52. In addition, in the series on mice [4], the “In Vivo Efficacy Normalized To Mc3 In Mice (Intramuscular Injection)” value came out at 1.65.

Consider `CCCCCCCCCC/C(=C/C(=O)OCCCCCCN(CCCO)CCCCCCOC(=O)/C=C(\CCC)CCCCCCCCCC)CCC` [CPL-062-01, ((3-hydroxypropyl)azanediyl)bis(hexane-6,1-diyl) (2E,2′E)-bis(3-propyltridec-2-enoate)], for which, in series [1], the PDI amounted to 0.0828 and the “Size (nm)” value is 67.12 nm. Also, the “Encapsulation Rate” value in series [2] came to 98%. For the same compound, the “In Vivo Efficacy Normalized To Mc3 In Mice (Intravenous Injection)” value in the series with mice [3] is reported as 2.21. Moreover, the “In Vivo Efficacy Normalized To Mc3 In Mice (Intramuscular Injection)” value in the series on mice [4] amounted to 1.06.

As to `CCCCCC/C(=C/C(=O)OCCCCCCCCCCN(CCCO)CCCCCCCCCCOC(=O)/C=C(\CCC)CCCCCC)CCC` [CPL-148, ((3-hydroxypropyl)azanediyl)bis(decane-10,1-diyl) (2E,2′E)-bis(3-propylnon-2-enoate)], in series [1], the PDI is 0.1437 and the “Size (nm)” value amounted to 90.31 nm. Further, in series [2], the “Encapsulation Rate” value was found to be 93%. For the same compound, in the series with mice [3], the “In Vivo Efficacy Normalized To Mc3 In Mice (Intravenous Injection)” value is 2.15. For the same compound, the “In Vivo Efficacy Normalized To Mc3 In Mice (Intramuscular Injection)” value with mice [4] was determined as 2.56.

As for `CCCCCCCCCC/C(=C\C(=O)OCCCCCCCCCN(CCCO)CCCCCCCCCOC(=O)/C=C(\CCCCC)CCCCCCCCCC)CCCCC` [CPL-136], in series [1], the PDI turned out to be 0.2 and the “Size (nm)” value turned out to be 92.9 nm. The “Encapsulation Rate” value in series [2] is on record as 98%. In the series with mice [3], the “In Vivo Efficacy Normalized To Mc3 In Mice (Intravenous Injection)” value is given as 2.81. Further, the “In Vivo Efficacy Normalized To Mc3 In Mice (Intramuscular Injection)” value in the series with mice [4] is on record as 1.61.

As for `CCCCCC/C(=C/C(=O)OCCCCCCCCCCCN(CCCO)CCCCCCCCCCCOC(=O)/C=C(\CCCC)CCCCCC)CCCC` [CPL-174-01, ((3-hydroxypropyl)azanediyl)bis(undecane-11,1-diyl) (2E,2′E)-bis(3-butylnon-2-enoate)], in series [1], the PDI came out at 0.18 and the “Size (nm)” value came to 112 nm. In addition, the “Encapsulation Rate” value in series [2] is 97%. Further, the “In Vivo Efficacy Normalized To Mc3 In Mice (Intravenous Injection)” value in the series on mice [3] was found to be 2.32. For the same compound, the “In Vivo Efficacy Normalized To Mc3 In Mice (Intramuscular Injection)” value in the series on mice [4] is recorded as 1.20.

For the compound `CCCCCC/C(=C/C(=O)OCCCCCCCCN(CCCO)CCCCCCCCOC(=O)/C=C(\CCCC)CCCCCC)CCCC` [CPL-456-01, ((3-hydroxypropyl)azanediyl)bis(octane-8,1-diyl) (2E,2′E)-bis(3-butylnon-2-enoate)], in series [1], the PDI was 0.1225 and the “Size (nm)” value amounted to 70.36 nm. For the same compound, the “Encapsulation Rate” value in series [2] was 85%. The “In Vivo Efficacy Normalized To Mc3 In Mice (Intravenous Injection)” value with mice [3] is 7.36. The “In Vivo Efficacy Normalized To Mc3 In Mice (Intramuscular Injection)” value in the series on mice [4] is given as 5.51.

Turning to `CCCCCCCCCC/C(=C/C(=O)OCCCCCCCCCCCN(CCCO)CCCCCCCCCCCOC(=O)/C=C(\CCCCC)CCCCCCCCCC)CCCCC` [CPL-180-01, ((3-hydroxypropyl)azanediyl)bis(undecane-11,1-diyl) (2E,2′E)-bis(3-pentyltridec-2-enoate)], in series [1], the PDI is 0.1334 and the “Size (nm)” value is 66.8 nm. Further, the “Encapsulation Rate” value in series [2] amounted to 86%. In addition, the “In Vivo Efficacy Normalized To Mc3 In Mice (Intravenous Injection)” value with mice [3] amounted to 9.31. Besides, the “In Vivo Efficacy Normalized To Mc3 In Mice (Intramuscular Injection)” value in the series on mice [4] is listed as 0.72.

Take `CCCCCCCCCC/C(=C/C(=O)OCCCCCCN(CCCO)CCCCCCOC(=O)/C=C(\CCCCCCCC)CCCCCCCCCC)CCCCCCCC` [CPL-079, ((3-hydroxypropyl)azanediyl)bis(hexane-6,1-diyl) (2E,2′E)-bis(3-octyltridec-2-enoate)]: in series [1], the PDI was 0.1557 and the “Size (nm)” value was determined as 94.46 nm. Moreover, the “Encapsulation Rate” value in series [2] is 94%. The “In Vivo Efficacy Normalized To Mc3 In Mice (Intravenous Injection)” value in the series with mice [3] is listed as 4.95. For the same compound, the “In Vivo Efficacy Normalized To Mc3 In Mice (Intramuscular Injection)” value in the series on mice [4] was determined as 1.30.

`CCCCCCCC/C(=C/C(=O)OCCCCCCN(CCCO)CCCCCCOC(=O)/C=C(\CCCCC)CCCCCCCC)CCCCC` [CPL-069-01, ((3-hydroxypropyl)azanediyl)bis(hexane-6,1-diyl) (2E,2′E)-bis(3-pentylundec-2-enoate)]: in series [1], the PDI is recorded as 0.126 and the “Size (nm)” value was 84.59 nm. Further, the “Encapsulation Rate” value in series [2] was determined as 97%. In the series on mice [3], the “In Vivo Efficacy Normalized To Mc3 In Mice (Intravenous Injection)” value was 2.70. In the series on mice [4], the “In Vivo Efficacy Normalized To Mc3 In Mice (Intramuscular Injection)” value worked out at 1.72.

For `CCCCCCC/C(=C/C(=O)OCCCCCCCN(CCCO)CCCCCCCOC(=O)/C=C(\CCCC)CCCCCCC)CCCC` [CPL-096, ((3-hydroxypropyl)azanediyl)bis(heptane-7,1-diyl)(2E,2′E)-bis(3-butyldec-2-enoate)], in series [1], the PDI is listed as 0.1973 and the “Size (nm)” value is on record as 71.62 nm. For the same compound, the “Encapsulation Rate” value in series [2] worked out at 95%. Moreover, the “In Vivo Efficacy Normalized To Mc3 In Mice (Intravenous Injection)” value with mice [3] is 2.06. Further, the “In Vivo Efficacy Normalized To Mc3 In Mice (Intramuscular Injection)” value with mice [4] was found to be 2.59.

On to `CCCCCCC(=CC(=O)OCCCCCCN(CCCO)CCCCCCOC(=O)C=C(CCCCCC)CCCCCC)CCCCCC` [CPL-071, ((3-hydroxypropyl)azanediyl)bis(hexane-6,1-diyl) (2E,2′E)-bis(3-hexylnon-2-enoate)], for which, in series [1], the PDI amounted to 0.1733 and the “Size (nm)” value is on record as 88.06 nm. The “Encapsulation Rate” value in series [2] is 92%. The “In Vivo Efficacy Normalized To Mc3 In Mice (Intravenous Injection)” value in the series on mice [3] amounted to 2.05. For the same compound, in the series on mice [4], the “In Vivo Efficacy Normalized To Mc3 In Mice (Intramuscular Injection)” value was found to be 7.81.
